According to patent US20100234310A1, “ESTROGENIC COMPOUNDS AND THEIR METHODS OF USE” (Bionovo, Inc., priority 2009, published 2010):

Tests used:
[1] = tested on: breast cancer cells; test: Activity in cancerous cells, in particular breast cancer cells, in vitro; format: cell-based
[2] = target: T1, ER-β (Homo sapiens, UniProt Q92731); test: ER-β specific assay: ER-β plasmid co-transfected with TNF-RE-tk-Luc or ERE-tk-Luc; format: cell-based
T1 construct: expressed in transfected cells
Method: Purified compounds were analyzed by LC-MS and NMR and data was compared to data acquired from authentic purchased standards.

T1 sequence (Q92731 whole entry, species assumed): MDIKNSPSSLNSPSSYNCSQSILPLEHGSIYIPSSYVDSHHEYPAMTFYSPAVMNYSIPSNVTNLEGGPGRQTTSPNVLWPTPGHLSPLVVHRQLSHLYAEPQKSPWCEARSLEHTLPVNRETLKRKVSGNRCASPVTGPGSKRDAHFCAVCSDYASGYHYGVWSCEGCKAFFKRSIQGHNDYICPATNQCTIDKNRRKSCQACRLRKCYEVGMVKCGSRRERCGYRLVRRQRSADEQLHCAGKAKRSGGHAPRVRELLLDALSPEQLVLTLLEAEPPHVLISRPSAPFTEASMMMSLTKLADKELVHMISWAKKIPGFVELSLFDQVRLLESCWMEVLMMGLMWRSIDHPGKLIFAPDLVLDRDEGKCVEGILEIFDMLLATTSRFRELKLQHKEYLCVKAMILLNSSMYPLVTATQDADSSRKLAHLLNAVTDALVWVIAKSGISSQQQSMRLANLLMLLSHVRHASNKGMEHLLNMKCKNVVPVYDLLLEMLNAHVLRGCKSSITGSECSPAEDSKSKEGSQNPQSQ

## O=c1cc(-c2ccc(O)cc2)oc2cc(O)cc(O)c12 [Apigenin]
[1]
  induction of apoptosis: active
  induction of cell death: active
  induction of mitochondrial superoxide: active

## O=c1cc(-c2ccc(O)c(O)c2)oc2cc(O)cc(O)c12 [Luteolin]
[2]
  estrogenic activity (ER-β-specific): estrogenic activity
[1]
  generation of reactive oxygen species: active
  generation/induction of superoxide: active
  induction of apoptosis: active
  induction of cell death: active
  induction of mitochondrial superoxide: active

## O=C1CC(c2ccc(O)cc2)Oc2cc(O)cc(O)c21 (stereo not shown) [Narigenin]
[2]
  estrogenic activity (ER-β-specific): estrogenic activity

## O=c1c(O[C@@H]2O[C@H](CO)[C@@H](O)[C@H](O)[C@H]2O)c(-c2ccc(O)c(O)c2)oc2cc(O)cc(O)c12 [Quercetin-3-O-β-glucopyranoside]
[2]
  estrogenic activity (ER-β-specific): estrogenic activity

## O=c1c(O)c(-c2ccc(O)c(O)c2)oc2cc(O)cc(O)c12 [Quercetin]
[2]
  estrogenic activity (ER-β-specific): estrogenic activity

## C[C@@H]1O[C@@H](Oc2c(-c3ccc(O)c(O)c3)oc3cc(O)cc(O)c3c2=O)[C@H](O)[C@H](O)[C@H]1O [Quercetrin]
[2]
  estrogenic activity (ER-β-specific): estrogenic activity
